# Read-outs that look alike come from different tables or passages of the source.
# Assays:
# [1] = target: T1, Estrogen receptor α (ERα) (Homo sapiens, UniProt P03372); assay: ERα binding assay (radioactive ligand binding)
# T1 construct: host or cells: insect Sf9 cells
# T1 sequence (P03372 1-595): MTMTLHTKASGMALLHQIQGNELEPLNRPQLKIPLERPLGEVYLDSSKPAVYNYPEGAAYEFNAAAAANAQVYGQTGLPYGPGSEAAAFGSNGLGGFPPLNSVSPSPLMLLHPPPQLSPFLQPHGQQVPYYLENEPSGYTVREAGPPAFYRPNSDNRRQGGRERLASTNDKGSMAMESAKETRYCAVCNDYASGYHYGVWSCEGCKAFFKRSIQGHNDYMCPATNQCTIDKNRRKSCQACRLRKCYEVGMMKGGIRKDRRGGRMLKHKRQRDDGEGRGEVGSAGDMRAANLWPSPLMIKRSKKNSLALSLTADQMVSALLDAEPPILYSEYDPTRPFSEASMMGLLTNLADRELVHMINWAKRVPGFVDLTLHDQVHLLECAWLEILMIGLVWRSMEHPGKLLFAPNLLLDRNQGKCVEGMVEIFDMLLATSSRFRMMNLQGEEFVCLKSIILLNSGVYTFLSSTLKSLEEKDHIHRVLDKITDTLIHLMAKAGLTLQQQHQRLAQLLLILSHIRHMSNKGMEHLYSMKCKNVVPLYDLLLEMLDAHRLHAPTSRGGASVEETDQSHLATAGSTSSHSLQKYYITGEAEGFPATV
# Description: (1) ERα Binding Assay: Assessment of the Activity of the Compound of Formula (I) Via Radioactive Ligand Binding Assay
# The method employed in this study was adopted from scientific literature (Obourn, J. D. et al., Biochemistry, 1993, 32, 6229-6236).
# The IC50 values were obtained using MathIQ™ software (ID Business Solutions Ltd., UK) employing a nonlinear, least-squares regression method. The presented inhibition constant (Ki) was calculated using the Cheng and Prusoff equation (Cheng, Y., Prusoff, W. H., Biochem. Pharmacol. 22:3099-3108, 1973) based on the experimentally determined IC50 of the test compound, the concentration of the radioactive ligand used in the assay, and the historical value of the ligand's KD (determined experimentally by Eurofins Panlabs, Inc.). As shown, the Hill coefficient (nH), which defines the slope of the competitive binding curve, was calculated using MathIQ™.
# [2] = system: human breast cancer MCF-7 cell subcutaneous xenograft tumor; assay type: in vivo; conditions: PO, QD; for T/C (%) / TGI (%) / Tumor volume (mm^3) (Day 21): Day 21; for Tumor volume (mm^3) (Day 21): listed as compound (I)
# Description: (1) In Vivo Pharmacodynamic Study of Breast Cancer MCF-7 Cell Subcutaneous Xenograft Tumor BALB/c Nude Mouse Model
# Objective: This study aimed to evaluate the in vivo efficacy of the crystal form C of the compound of formula (I) using a human breast cancer MCF-7 cell subcutaneous xenograft tumor model in nude mice.
# Routine digestion with trypsin-EDTA (Gibco) was performed twice a week for passaging.
# Cell inoculation: Estrogen pellets (0.36 mg/pellet; IRA) were subcutaneously inoculated into the left dorsum of each mouse. Three days later, 0.2 mL (1×10^7 cells) of MCF-7 cells (mixed with Matrigel; CORNING, volume ratio 1:1) were subcutaneously inoculated into the right dorsum of each mouse. When the average tumor volume reached 188 mm^3, the mice were grouped and the administration of compounds began.
# An appropriate amount of the compound of formula (I) was weighed and prepared into 0.1, 0.3, 1, and 3 mg/mL solutions. […] Fulvestrant was used as the commercially available injection Faslodex.
# The antitumor efficacy of the compounds was evaluated using Tumor Growth Inhibition (TGI, %) and relative tumor proliferation rate (T/C, %).
# The Q value of combined medication index was calculated using the Jin formula. The criteria for judgment were as follows: a Q value of 0.85 to 1.15 indicated […] (+); a Q value>1.15 to 2.0 indicated enhancement (++); a Q value<0.85 to 0.55 indicated antagonism (−); and a Q value<0.55 indicated significant antagonism (−−). The formula was Q=Ea+b/(Ea+Eb−Ea×Eb), where Ea+b was the tumor inhibition rate of the combined medication group, and Ea and Eb were the tumor inhibition rates of the single medication groups, respectively.
# Inter-group comparisons were analyzed using one-way ANOVA. […] A p value<0.05 was considered to indicate a significant difference.
smiles,measurement,setting,value
FCCCN1CC[C@H](Nc2cnc(C3=C(CC(F)(F)F)CCCc4c3ccc3[nH]nc(F)c43)cn2)C1 [Compound of formula (I)],nH (Hill coefficient),[1],1.22
same,IC50,[1]; 0.5 nM [3H] estradiol,0.36 nM
same,Ki,[1]; Cheng and Prusoff equation,0.1 nM
same,inhibition at 12.8 pM,"[1]; concentration 12.8 pM, read-out: Inhibition rate (%)",-4%
same,inhibition at 64 pM,"[1]; concentration 0.064 nM, read-out: Inhibition rate (%)",9%
same,inhibition at 0.00032 µM,"[1]; concentration 0.32 nM, read-out: Inhibition rate (%)",48%
same,inhibition at 0.0016 µM,"[1]; concentration 1.6 nM, read-out: Inhibition rate (%)",84%
same,inhibition at 0.008 µM,"[1]; concentration 8 nM, read-out: Inhibition rate (%)",97%
same,inhibition at 0.04 µM,"[1]; concentration 0.04 μM, read-out: Inhibition rate (%)",98%
same,inhibition at 0.2 µM,"[1]; concentration 0.2 μM, read-out: Inhibition rate (%)",97%
same,inhibition at 1 µM,"[1]; concentration 1 μM, read-out: Inhibition rate (%)",97%
same,T/C (%),[2]; 1 mg/kg,27.2%
same,TGI (%),[2]; 1 mg/kg,85.3%
same,Tumor volume (mm^3) (Day 21),[2]; 1 mg/kg,340 mm^3
same,T/C (%),[2]; 3 mg/kg,14.8%
same,TGI (%),[2]; 3 mg/kg,100.9%
same,Tumor volume (mm^3) (Day 21),[2]; 3 mg/kg,179 mm^3
same,ORR %,[2]; 10 mg/kg,25%
same,T/C (%),[2]; 10 mg/kg,11.3%
same,TGI (%),[2]; 10 mg/kg,104.6%
same,Tumor volume (mm^3) (Day 21),[2]; 10 mg/kg,140 mm^3
same,ORR %,[2]; 30 mg/kg,25%
same,T/C (%),[2]; 30 mg/kg,9.7%
same,TGI (%),[2]; 30 mg/kg,106.5%
same,Tumor volume (mm^3) (Day 21),[2]; 30 mg/kg,121 mm^3
